Results as given in patent US20260258420A1, “COMPOSITIONS AND METHODS FOR THE TREATMENT OF HUMAN PAPILLOMAVIRUS-DRIVEN CANCERS” (priority 2023, published 2026).

Columns and labels:
[1] = human clinical trials; cited from earlier work
[2] = tested on: 2 HPV-positive cell lines with TRIP13 overexpression; assay: Apoptosis with TRIP13 overexpression, HPV-positive cells; type: cell-based; conditions: 300 nmol/L, 24 or 32 hours
Protocol: (§1) FIG. 5A, two HPV-positive cell lines (CASKI and SIHA) were transfected with BUB1B or MAD2L1 siRNA and then treated for 24 hours with 300 nmol/L alisertib before lysis and immunoblotting with the indicated antibodies. FIG. 5B, TRIP13 was transiently overexpressed (Ox) in 2 HPV-positive cell lines that were treated for 24 hours with 300 nmol/L alisertib before lysis and immunoblotting for the indicated proteins. FIG. 5C, HPV-positive cell lines with TRIP13 overexpression were treated with 300 nmol/L alisertib for 32 hours and then stained for annexin V-PE/7AAD staining and analysis with flow cytometry to measure apoptosis. The bar graph represents the ratio of apoptosis (late plus early) among different groups. Values are the means±the standard deviations for 3 independent experiments. ** P≤0.01; *** P≤0.001; unpaired, 2-tailed Student t-test. FIG. 5D, HN31 (left panel) and MDA886LN (right panel) cells expressing RB1 or control shRNA were transfected with a plasmid for TRIP13. After 24 hours, cells were treated with 300 nmol/L alisertib and then lysed for immunoblotting. Cl, cleaved; Fl, full length; GAPDH, glyceraldehyde 3-phosphate dehydrogenase.
(§2) In normal cells, prolonged mitosis resulting from Mad2 overexpression can lead to G1 arrest or mitotic cell death, so it is unclear why Mad2 overexpression is tolerated in HPV-positive cancers. […]

[3] = tested on: HPV-positive cell lines (CASKI and SIHA); assay: Apoptosis immunoblot after BUB1B or MAD2L1 siRNA; type: cell-based; conditions: 300 nmol/L, 24 hours
Protocol: as §1, with “dehydrogenase. […]” for “dehydrogenase.”

[4] = tested on: HN31 and MDA886LN cells expressing RB1 shRNA; assay: Apoptosis with TRIP13 overexpression, RB1-knockdown HPV-negative cells; type: cell-based; conditions: 300 nmol/L
Protocol: as §1, §2

COc1cc(Nc2ncc3c(n2)-c2ccc(Cl)cc2C(c2c(F)cccc2OC)=NC3)ccc1C(=O)O [ALISERTIB, alisertib]
common toxicities [1]: anemia, thrombocytopenia, and neutropenia
apoptosis with TRIP13 overexpression (PARP and caspase-3 cleavage, annexin V) [2]: partial rescue
apoptosis with reduced levels of Mad2 or BUB1B [3]: rescued the cells from alisertib-induced apoptosis
apoptosis with TRIP13 overexpression [4]: reduced apoptosis
